Read-outs that look alike come from different tables or passages of the source.
Key:
cerebellar granule cells [1] = details: for concentration at which maximal effects on granule cell viability/lysis were observed / concentration at which significant effects on granule cell viability/lysis were initially detected: MTS reduction and LDH release, independent of culture condition (GCSF or NB-B27)
Experimental: Viability of the cerebellar granule cell culture was assessed using CellTiter 96® AQueous One Solution Cell Proliferation reagent (Promega, G3580). This colorimetric assay employs, 3-(4,5-dimethylthiazol-2-yl)-5-(3-carboxymethoxyphenyl)-2-(4-sulfophenyl)-2H-tetrazolium (MTS) and the electron coupling reagent, phenazine ethosulfate (PES). […] Briefly, prior to each MTS assay, 100 μl of media was removed from each well, transferred to new 96-well plate for subsequent LDH release analysis. To each cell containing well, 20 μl of MTS tetrazolium reagent was added to the remaining media (100 μl). Culture plates were incubated in the humidified incubator at 37° C. and in 5% CO2 for 2 hours. Following incubation the quantity of formazan product present was determined by measuring the absorbance at 490 nm using a VERSAmax® microplate reader and SOFTmax PRO software (Molecular Devices).
(§1) Granule cell cultures were seeded at an initial density of 1×10^5 cells per well and maintained in GCSF culture media for 7 day in vitro prior to toxicant exposure. On the day of treatment, L-Glutamate, tert-butyl-hydroperoxide (TBHP), hydrogen peroxide (H2O2), ionomycin (Sigma), and MK-801 (Calbiochem, San Diego) were prepared at required concentration in the appropriate media. Cultures were exposed to toxicants for 24 hours prior to viability analysis. Cultures receiving MK-801 were pretreated for 10 minutes prior to addition of L-glutamate, and negative control cultures were treated with fresh media. For dose-dependence of oxidative-induced injury H2O2 and TBHP stock solutions were serially diluted in media to 100× concentrations immediately before each experiment. The concentration of the H2O2 stock solution was determined spectrophotometrically before each experiment based on its absorbance using the equation: C=(Ab240/ε)×DF; where C is the concentration of H2O2 (mM), Ab240 is absorbance at 240 nm, ε is the extinction coefficient (0.0394 mM^−1 cm^−1), DF is the dilution factor, and the path-length of the spectrophotometer is 1 cm. Comparative analysis of granule cell viability/lyses in GCSF and NB-B27 was assessed using the MTS reduction and LDH release assays as described above.

cerebellar granule cells [2] = experiment: LDH release assay of granule cell death after toxicant exposure; type: cell-based, rat
Experimental: The lactate dehydrogenase (LDH) released into the media was determined using Cyto Tox96® non-radioactive cytotoxicity assay (Promega). In this calorimetric assay, LDH converts lactate and nicotinamide adenine dinucleotide (NAD^+) to pyruvate and NADH, respectively. This initial reaction is coupled to a second reaction where diaphorase converts iodo-nitro-tetrazolium salt and NADH to a red colored formazan compound and NAD^+ respectively. Briefly, 50 μl of assay buffer was added to each 100 μl sample of media removed from each well prior to MTS analysis. Samples were then incubated in the dark for 30 minutes at room temperature, and then 50 μl of a stop solution (1M acetic acid) was added into each well and the absorbance at 490 nm was measured as above. Positive control samples of bovine heart LDH (800 units/ml; lot 11455502, Promega) were serially diluted into a final volume of 200 μl and assayed as described above.
as §1

[3] = tested on: non-neuronal cells in cerebellar cultures; experiment: Inhibition of non-neuronal cell proliferation in primary cerebellar cultures (visual inspection, staining); type: cell-based, rat
Experimental: Based on the calculated cell numbers, cerebellar cells were serially diluted in an appropriate volume of culture media and seeded into flat-bottom 96-well tissue culture plates pre-coated with poly-L-lysine (Becton Dickinson, Bedford, Mass.). The numbers of cerebellar cells seeded ranged from 6,250 to 400,000 cells per well (0.32 cm^2) in a final volume of 200 μl. Cultures were maintained in a humidified incubator in 5% CO2 at 37° C.
After 7-30 day in vitro, cultures were washed 3 times with phosphate buffered saline (PBS) and fixed for 20-30 minutes with 4% paraformaldehyde in 0.1M sodium phosphate buffer (pH 7.4; PB). Following fixation, cells were washed 3 times with PBS, and either stained with 1% methylene blue (Sigma) in deionized water for 5 minutes and destained with deionized water or permeablized for immunostaining with 0.2% Triton X-100 in PBS. Permeablized cells were washed 3 times with PBS, incubated for 1 hour in 5% normal horse serum in PB and then incubated overnight at 4° C. with a glial fibrillary acidic protein (GFAP) antiserum (1:5000 dilution; Dako, Carpintea, Calif.). Following incubation with primary antiserum, cells were extensively washed with PBS plus 0.1% Tween-20 and immunoreactivity was visualized with NiCl/3,3′-diaminobenzidine (DAB) using the avidin-biotin-complex (ABC) method (Vector Elite-universal; Vector Laboratories, Burlingame, Calif.). […]

[4] = 400 μM H2O2, 24 hours, 7 DIV cultures in GCSF
[5] = 400 μM H2O2, 24 hours, 7 DIV cultures in NB-B27
[6] = 125 μM TBHP, 24 hours, 7 DIV cultures in GCSF
[7] = 125 μM TBHP, 24 hours, 7 DIV cultures in NB-B27

**Q.** How did the “neuronal cell death (MTS reduction)” value (cerebellar granule cells [1]; 100 μM H2O2, 24 hours, GCSF, single experiment n=8) turn out when `OO` [H2O2, hydrogen peroxide] was run?
**A.** Statistically significant levels of neuronal cell death

**Q.** What about the MTS-reduction (cerebellar granule cells [1]; [4]) of the same compound?
**A.** 41.5±1.0 % of control

**Q.** And the MTS-reduction (cerebellar granule cells [1]; [5])?
**A.** 47±1.2 % of control

**Q.** And the “concentration at which maximal effects on granule cell viability/lysis were observed” value (cerebellar granule cells [1]; 24 hours)?
**A.** 400 µM

**Q.** What about the “concentration at which significant effects on granule cell viability/lysis were initially detected” value (cerebellar granule cells [1]; 24 hours) of the same compound?
**A.** 200 µM

**Q.** And the LDH-release (cerebellar granule cells [2]; [4])?
**A.** 136.9±2.8 % of control

**Q.** And the LDH-release (cerebellar granule cells [2]; [5])?
**A.** 125±5.0 % of control

**Q.** With `N[C@@H](CCC(=O)O)C(=O)O` [L-glutamate, L-Glutamate] as the compound, how does the “granule cell viability (MTS reduction)” value (cerebellar granule cells [1]; 500 μM L-glutamate, 24 hours, GCSF, representative single experiment) read?
**A.** 56.8±2 % of control cultures

**Q.** For `C[C@]12N[C@H](Cc3ccccc31)c1ccccc12` [MK-801], which “viability of cultures pretreated with antagonist prior to L-glutamate exposure (MTS reduction)” value (cerebellar granule cells [1]; 10 μM MK-801 pretreatment 10 minutes, then 500 μM L-glutamate 24 hours, GCSF) is on record?
**A.** not significantly different from the mock-treated control cultures

**Q.** How did the MTS-reduction (cerebellar granule cells [1]; [6]) turn out when `CC(C)(C)OO` [TBHP, tert-butyl-hydroperoxide] was run?
**A.** 37.9±0.8 % of control

**Q.** And the MTS-reduction (cerebellar granule cells [1]; [7])?
**A.** 43.7±1.9 % of control

**Q.** And the “concentration at which maximal effects on granule cell viability/lysis were observed” value (cerebellar granule cells [1]; 24 hours)?
**A.** 125 µM

**Q.** What about the “concentration at which significant effects on granule cell viability/lysis were initially detected” value (cerebellar granule cells [1]; 24 hours) of the same compound?
**A.** 62.5 µM

**Q.** What about the LDH-release (cerebellar granule cells [2]; [6]) of the same compound?
**A.** 125.4±1.4 % of control

**Q.** And the LDH-release (cerebellar granule cells [2]; [7])?
**A.** 122.7±5.6 % of control

**Q.** Which “average maximal decrease in viability (MTS reduction)” value (cerebellar granule cells [1]; ionomycin treatment (10 nM per FIG. 6 legend), GCSF) does the source give for `C[C@H](CCC(=O)O)C[C@H](C)C[C@H](C)C(=O)/C=C(\O)[C@H](C)C[C@H](C)C/C=C/[C@@H](C)[C@@H](O)[C@@H](C)[C@@H](O)C[C@@H]1CC[C@@](C)([C@H]2CC[C@@](C)([C@@H](C)O)O2)O1` [ionomycin] here?
**A.** 56±5 % of control

**Q.** For cytosine β-D-arabinofuranoside [AraC], which “non-neuronal cell types in cultures” value ([3]; 10 μM AraC added after 24 hour in vitro, NB-B27 or GCSF) is on record?
**A.** less than 5%

**Q.** And the “cells with morphological phenotype of small cerebellar granule cell neurons” value ([3]; 10 μM AraC added after 24 hours, 96-well plates, visual inspection)?
**A.** > 90%

From patent US6506576B2 (priority 2001, dated 2003)
